The target of the assay is GST-Bc1-2 (Homo sapiens, UniProt P10415). The assay can be described thus: Time Resolved-Fluorescence Resonance Energy Transfer (TR-FRET) Bcl-2 binding assay with F-Bak peptide probe. As to conditions: GST-Bcl-2 1 nM, F-Bak probe 100 nM, Tb-anti-GST 1 nM; '<' = below limit of detection; read-out: TR-FRET Bcl-2 Binding Ki.
GST-Bc1-2, sequence (P10415 whole entry): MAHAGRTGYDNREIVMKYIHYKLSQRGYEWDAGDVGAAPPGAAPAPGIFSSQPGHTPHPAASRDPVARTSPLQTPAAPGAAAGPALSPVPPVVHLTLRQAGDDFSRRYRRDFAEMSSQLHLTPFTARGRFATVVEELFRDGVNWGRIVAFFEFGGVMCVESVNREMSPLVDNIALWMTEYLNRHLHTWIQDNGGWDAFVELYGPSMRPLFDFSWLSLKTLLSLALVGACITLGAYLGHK
What is called Ki is the dissociation constant of the complex between target and ligand, obtained from inhibition or displacement. For `CC1(C)CCC(CN2CCN(c3ccc(C(=O)NS(=O)(=O)c4cnc(OCC5(F)CCN(CC#N)CC5)c(Cl)c4)c(Oc4cnc5[nH]ccc5c4)c3)CC2)=C(c2ccc(Cl)cc2)C1` [Example 257, N-[(5-chloro-6-{[1-(cyanomethyl)-4-fluoropiperidin-4-yl]methoxy}pyridin-3-yl)sulfonyl]-4-(4-{[2-(4-chlorophenyl)-4,4-dimethylcyclohex-1-en-1-yl]methyl}piperazin-1-yl)-2-(1H-pyrrolo[2,3-b]pyridin-5-yloxy)benzamide], the Ki came to 52 pM.
Then `CN(C)CC(=O)N1CCO[C@H](CNc2ccc(S(=O)(=O)NC(=O)c3ccc(N4CCN(CC5=C(c6ccc(Cl)cc6)CC(C)(C)CC5)CC4)cc3Oc3cnc4[nH]ccc4c3)cc2[N+](=O)[O-])C1` [Example 258, 4-(4-{[2-(4-chlorophenyl)-4,4-dimethylcyclohex-1-en-1-yl]methyl}piperazin-1-yl)-N-{[4-({[(2R)-4-(N,N-dimethylglycyl)morpholin-2-yl]methyl}amino)-3-nitrophenyl]sulfonyl}-2-(1H-pyrrolo[2,3-b]pyridin-5-yloxy)benzamide], with under 10 pM; and `CN(C)CC(=O)N1CCO[C@@H](CNc2ccc(S(=O)(=O)NC(=O)c3ccc(N4CCN(CC5=C(c6ccc(Cl)cc6)CC(C)(C)CC5)CC4)cc3Oc3cnc4[nH]ccc4c3)cc2[N+](=O)[O-])C1` [Example 259, 4-(4-{[2-(4-chlorophenyl)-4,4-dimethylcyclohex-1-en-1-yl]methyl}piperazin-1-yl)-N-{[4-({[(2S)-4-(N,N-dimethylglycyl)morpholin-2-yl]methyl}amino)-3-nitrophenyl]sulfonyl}-2-(1H-pyrrolo[2,3-b]pyridin-5-yloxy)benzamide], with under 10 pM; and `CN(C)CC(=O)N1CCC(COc2ncc(S(=O)(=O)NC(=O)c3ccc(N4CCN(CC5=C(c6ccc(Cl)cc6)CC(C)(C)CC5)CC4)cc3Oc3cnc4[nH]ccc4c3)cc2Cl)CC1` [Example 260, N-[(5-chloro-6-{[1-(N,N-dimethylglycyl)piperidin-4-yl]methoxy}pyridin-3-yl)sulfonyl]-4-(4-{[2-(4-chlorophenyl)-4,4-dimethylcyclohex-1-en-1-yl]methyl}piperazin-1-yl)-2-(1H-pyrrolo[2,3-b]pyridin-5-yloxy)benzamide], with 16 pM.
To `CC1(C)CCC(CN2CCN(c3ccc(C(=O)NS(=O)(=O)c4cnc(O[C@@H]5CCN(CC(F)F)C5)c(Cl)c4)c(Oc4cnc5[nH]ccc5c4)c3)CC2)=C(c2ccc(Cl)cc2)C1` [Example 261, N-[(5-chloro-6-{[(3R)-1-(2,2-difluoroethyl)pyrrolidin-3-yl]oxy}pyridin-3-yl)sulfonyl]-4-(4-{[2-(4-chlorophenyl)-4,4-dimethylcyclohex-1-en-1-yl]methyl}piperazin-1-yl)-2-(1H-pyrrolo[2,3-b]pyridin-5-yloxy)benzamide] belongs 134 pM; to `CC1(C)CCC(CN2CCN(c3ccc(C(=O)NS(=O)(=O)c4ccc(N[C@@H]5CCN(CC#N)C5)c([N+](=O)[O-])c4)c(Oc4cnc5[nH]ccc5c4)c3)CC2)=C(c2ccc(Cl)cc2)C1` [Example 262, 4-(4-{[2-(4-chlorophenyl)-4,4-dimethylcyclohex-1-en-1-yl]methyl}piperazin-1-yl)-N-[(4-{[(3R)-1-(cyanomethyl)pyrrolidin-3-yl]amino}-3-nitrophenyl)sulfonyl]-2-(1H-pyrrolo[2,3-b]pyridin-5-yloxy)benzamide], under 10 pM; to `COC1(Cc2ccccc2-c2ccc(Cl)cc2)CCN(c2ccc(C(=O)NS(=O)(=O)c3cnc(OCC4(F)CCOCC4)c(Cl)c3)c(Oc3cnc4[nH]ccc4c3)c2)CC1` [Example 263, 4-{4-[(4′-chlorobiphenyl-2-yl)methyl]-4-methoxypiperidin-1-yl}-N-({5-chloro-6-[(4-fluorotetrahydro-2H-pyran-4-yl)methoxy]pyridin-3-yl}sulfonyl)-2-(1H-pyrrolo[2,3-b]pyridin-5-yloxy)benzamide], 156 pM.
For the compound `COC1(Cc2ccccc2-c2ccc(Cl)cc2)CCN(c2ccc(C(=O)NS(=O)(=O)c3ccc(NCC4CCOCC4)c([N+](=O)[O-])c3)c(Oc3cnc4[nH]ccc4c3)c2)CC1` [Example 264, 4-{4-[(4′-chlorobiphenyl-2-yl)methyl]-4-methoxypiperidin-1-yl}-N-({3-nitro-4-[(tetrahydro-2H-pyran-4-ylmethyl)amino]phenyl}sulfonyl)-2-(1H-pyrrolo[2,3-b]pyridin-5-yloxy)benzamide], the inhibition constant (Ki) was determined as 36 pM.
Then `O=C(NS(=O)(=O)c1ccc(NCC2CCOCC2)c([N+](=O)[O-])c1)c1ccc(N2CCN(CC3=C(c4ccc(Cl)cc4)CCC4(CCN(C(CF)CF)CC4)C3)CC2)cc1Oc1cnc2[nH]ccc2c1` [Example 265, 4-(4-{[9-(4-chlorophenyl)-3-(1,3-difluoropropan-2-yl)-3-azaspiro[5.5]undec-8-en-8-yl]methyl}piperazin-1-yl)-N-({3-nitro-4-[(tetrahydro-2H-pyran-4-ylmethyl)amino]phenyl}sulfonyl)-2-(1H-pyrrolo[2,3-b]pyridin-5-yloxy)benzamide], with under 10 pM; and `CC(C)N1CCC2(CCC(c3ccc(Cl)cc3)=C(CN3CCN(c4ccc(C(=O)NS(=O)(=O)c5ccc(NCC6CCOCC6)c([N+](=O)[O-])c5)c(Oc5cnc6[nH]ccc6c5)c4)CC3)C2)CC1` [Example 266, 4-(4-{[9-(4-chlorophenyl)-3-isopropyl-3-azaspiro[5.5]undec-8-en-8-yl]methyl}piperazin-1-yl)-N-({3-nitro-4-[(tetrahydro-2H-pyran-4-ylmethyl)amino]phenyl}sulfonyl)-2-(1H-pyrrolo[2,3-b]pyridin-5-yloxy)benzamide], with under 10 pM; and `CC(C)N1CCC2(CCC(c3ccc(Cl)cc3)=C(CN3CCN(c4ccc(C(=O)NS(=O)(=O)c5cnc(OCC6CCOCC6)c(Cl)c5)c(Oc5cnc6[nH]ccc6c5)c4)CC3)C2)CC1` [Example 268, 4-(4-{[9-(4-chlorophenyl)-3-isopropyl-3-azaspiro[5.5]undec-8-en-8-yl]methyl}piperazin-1-yl)-N-{[5-chloro-6-(tetrahydro-2H-pyran-4-ylmethoxy)pyridin-3-yl]sulfonyl}-2-(1H-pyrrolo[2,3-b]pyridin-5-yloxy)benzamide], with under 10 pM.
Then `CN1CCC(F)(COc2ncc(S(=O)(=O)NC(=O)c3ccc(N4CCN(CC5=C(c6ccc(Cl)cc6)CC(C)(C)CC5)CC4)cc3Oc3cnc4[nH]ccc4c3)cc2Cl)CC1` [Example 269, N-({5-chloro-6-[(4-fluoro-1-methylpiperidin-4-yl)methoxy]pyridin-3-yl}sulfonyl)-4-(4-{[2-(4-chlorophenyl)-4,4-dimethylcyclohex-1-en-1-yl]methyl}piperazin-1-yl)-2-(1H-pyrrolo[2,3-b]pyridin-5-yloxy)benzamide], with 16 pM; and `CN(C)CC(=O)N1CCC(F)(COc2ncc(S(=O)(=O)NC(=O)c3ccc(N4CCN(CC5=C(c6ccc(Cl)cc6)CC(C)(C)CC5)CC4)cc3Oc3cnc4[nH]ccc4c3)cc2Cl)CC1` [Example 270, N-[(5-chloro-6-{[1-(N,N-dimethylglycyl)-4-fluoropiperidin-4-yl]methoxy}pyridin-3-yl)sulfonyl]-4-(4-{[2-(4-chlorophenyl)-4,4-dimethylcyclohex-1-en-1-yl]methyl}piperazin-1-yl)-2-(1H-pyrrolo[2,3-b]pyridin-5-yloxy)benzamide], with under 10 pM; and `O=C(NS(=O)(=O)c1ccc(NCC2CCOCC2)c([N+](=O)[O-])c1)c1ccc(N2CCC(F)(Cc3ccccc3-c3ccc(Cl)cc3)CC2)cc1Oc1cnc2[nH]ccc2c1` [Example 271, 4-{4-[(4′-chlorobiphenyl-2-yl)methyl]-4-fluoropiperidin-1-yl}-N-({3-nitro-4-[(tetrahydro-2H-pyran-4-ylmethyl)amino]phenyl}sulfonyl)-2-(1H-pyrrolo[2,3-b]pyridin-5-yloxy)benzamide], with 39 pM.
Then `O=C(NS(=O)(=O)c1cnc(OCC2(F)CCOCC2)c(Cl)c1)c1ccc(N2CCC(F)(Cc3ccccc3-c3ccc(Cl)cc3)CC2)cc1Oc1cnc2[nH]ccc2c1` [Example 272, 4-{4-[(4′-chlorobiphenyl-2-yl)methyl]-4-fluoropiperidin-1-yl}-N-({5-chloro-6-[(4-fluorotetrahydro-2H-pyran-4-yl)methoxy]pyridin-3-yl}sulfonyl)-2-(1H-pyrrolo[2,3-b]pyridin-5-yloxy)benzamide], with 31 pM; and `CC(C)N1CCC2(CCC(c3ccc(Cl)cc3)=C(CN3CCN(c4ccc(C(=O)NS(=O)(=O)c5ccc(NCC6CCOCC6)c(C(F)(F)F)c5)c(Oc5cnc6[nH]ccc6c5)c4)CC3)C2)CC1` [Example 273, 4-(4-{[9-(4-chlorophenyl)-3-isopropyl-3-azaspiro[5.5]undec-8-en-8-yl]methyl}piperazin-1-yl)-2-(1H-pyrrolo[2,3-b]pyridin-5-yloxy)-N-({4-[(tetrahydro-2H-pyran-4-ylmethyl)amino]-3-(trifluoromethyl)phenyl}sulfonyl)benzamide], with 35 pM.
For the compound `CC1(C)CCC(CN2CCN(c3ccc(C(=O)NS(=O)(=O)c4cnc(O[C@@H]5CCN(C(CF)CF)C5)c(Cl)c4)c(Oc4cnc5[nH]ccc5c4)c3)CC2)=C(c2ccc(Cl)cc2)C1` [Example 274, N-[(5-chloro-6-{[(3R)-1-(1,3-difluoropropan-2-yl)pyrrolidin-3-yl]oxy}pyridin-3-yl)sulfonyl]-4-(4-{[2-(4-chlorophenyl)-4,4-dimethylcyclohex-1-en-1-yl]methyl}piperazin-1-yl)-2-(1H-pyrrolo[2,3-b]pyridin-5-yloxy)benzamide], the Ki amounted to 40 pM.
As for `CC1(C)CCC(CN2CCN(c3ccc(C(=O)NS(=O)(=O)c4ccc(OCCOC5CCOC5)c([N+](=O)[O-])c4)c(Oc4cnc5[nH]ccc5c4)c3)CC2)=C(c2ccc(Cl)cc2)C1` (stereo not drawn) [Example 275, 4-(4-{[2-(4-chlorophenyl)-4,4-dimethylcyclohex-1-en-1-yl]methyl}piperazin-1-yl)-N-({3-nitro-4-[2-(tetrahydrofuran-3-yloxy)ethoxy]phenyl}sulfonyl)-2-(1H-pyrrolo[2,3-b]pyridin-5-yloxy)benzamide], the Ki was under 10 pM.

The values are drawn from patent US8580794B2 (AbbVie Inc., priority 2009, dated 2013).
